Measurements published in US9333193B2, “Compositions and methods for treating tuberculosis” (priority 2010, dated 2016).
Converted amounts (≈) assume the structure as drawn. Where two headings read alike, the source gives them in different places.

Tests used:
[1] = system: Mycobacterium tuberculosis; assay: microbe, parasite or virus in culture; conditions: agar proportion
[2] = system: Mycobacterium smegmatis mc2155; assay: Anti-mycobacterial activity of nitazoxanides, MIC in Middlebrook 7H9; format: cell-based; conditions: Middlebrook 7H9, 37° C.; for MIC: Mycolicibacterium smegmatis, MC2155, read-out: Minimal Inhibitory Concentration, M. smegmatis
Method: (§1) (1) Strains: Mycobacterium smegmatis mc2155, Mycobacterium chelonae EOP-1, Mycobacterium marinum ATCC 927, Mycobacterium avium Va14(T), and Mycobacterium abscessus AAy-P-1).
(§2) (2) Medium: Middlebrook 7H9 containing 0.5% (vol/vol) glycerol and 10% (vol/vol) oleic acid-albumin.
(§3) (3) Incubation Temperature: 37° C., except M. marinum 30° C.
(§4) (4) Nitazoxanides: Precipitates were present in wells of nitazoxanides with high concentrations (250-31 μg/mL) except for 162080, 162088, 16b2026, and 16b2031.
(5) Decolorization: Almost all the yellow nitazoxanides, namely 16b1090, 16b1092 and 16b1093, 16b1094, 16b2023, 16b2025, and 16b2026 were decolorized by M. smegmatis strain mc2155. None of the other mycobacterial strains decolorized the compounds. Note that the compound numbers are also referred to herein with the prefix VPC.
(§5) The strains used were Mycobacterium smegmatis mc2155, Mycobacterium chelonae EOP-1, Mycobacterium marinum ATCC 927, Mycobacterium avium Va14(T), and Mycobacterium abscessus AAy-P-1. The medium use was Middlebrook 7H9 containing 0.5% (vol/vol) glycerol and 10% (vol/vol) oleic acid-albumin. Incubation Temperature was 37° C., except for M. marinum at 30° C. For nitazoxanides, precipitates were present in wells of nitazoxanides with high concentrations (250-31 μg/mL) except for 162080, 162088, 16b2026, and 16b2031.
Decolorization: Almost all the yellow nitazoxanides, namely 16b1090, 16b1092 and 16b1093, 16b1094, 16b2023, 16b2025, and 16b2026 were decolorized by M. smegmatis strain mc2155. None of the other mycobacterial strains decolorized the compounds.

[3] = system: Mycobacterium avium Va14(T); assay: as above; format: cell-based; conditions: Middlebrook 7H9, 37° C.; for MIC: Mycobacterium avium, read-out: Minimal Inhibitory Concentration, M. avium
Method: as §1, §2, §3, §4, §5

[4] = system: Mycobacterium chelonae EOP-1; assay: as above; format: cell-based; conditions: Middlebrook 7H9, 37° C.; for MIC: read-out: Minimal Inhibitory Concentration, M. chelonae
Method: as §1, §2, §3, §4, §5

[5] = system: Mycobacterium marinum ATCC 927; assay: as above; format: cell-based; conditions: Middlebrook 7H9, 30° C.; for MIC: Mycobacterium marinum, ATCC927, read-out: Minimal Inhibitory Concentration, M. marinum
Method: as §1, §2, §3, §4, §5

[6] = system: Mycobacterium abscessus AAy-P-1; assay: as above; format: cell-based; conditions: Middlebrook 7H9, 37° C.; for MIC: Mycobacteroides abscessus, AAYP1, read-out: Minimal Inhibitory Concentration, M. abscessus
Method: as §1, §2, §3, §4, §5

TB organisms = conditions: cited from earlier work
M. tuberculosis = assay: microbe, parasite or virus in culture; format: cell-based, Mycobacterium tuberculosis; parameters: % Inhibit growth, H37Rv / % Inhibit growth, Susceptible / % Inhibit growth, MDR / % Inhibit growth, XDR / inhibition: dose or concentration left out as unconfirmed; conditions: for inhibition: Mycobacterium tuberculosis; for % Inhibit growth, MDR: MDR strain; for % Inhibit growth, MDR / % Inhibit growth, Susceptible / % Inhibit growth, XDR / % Inhibit growth, H37Rv / Potency against M. tuberculosis in words (Table 1): agar proportion method; for % Inhibit growth, Susceptible: Susceptible strain; for % Inhibit growth, XDR: XDR strain; for % Inhibit growth, H37Rv: strain H37Rv
[7] = system: Mycobacterium tuberculosis; conditions: agar proportion
[8] = H37RV, isolate H37Rv (Reference)
[9] = read-out: % Inhibit growth, MDR
[10] = read-out: % Inhibit growth, XDR

Row | Structure (SMILES) | MIC [1, 8] [µg/mL] | MIC ([1]; isolate 234 (MDR-TB)) [µg/mL] | MIC ([1]; isolate 283 (susceptible)) [µg/mL] | MIC ([1]; isolate 565 (MDR-TB)) [µg/mL] | MIC ([1]; isolate 694 (MDR-TB)) [µg/mL] | MIC ([1]; isolate 750 (MDR-TB)) [µg/mL] | MIC ([1]; isolate 823 (XDR-TB)) [µg/mL] | MIC ([1]; isolate 971 (MDR-TB)) [µg/mL] | MIC [2] [µg/mL] | MIC [3] [µg/mL] | MIC [4] [µg/mL] | MIC [5] [µg/mL] | MIC [6] [µg/mL] | inhibition (M. tuberculosis; [9]) [%] | inhibition (M. tuberculosis; [10]) [%] | other results
1 | NNC(=O)c1ccncc1 [Isoniazid, reference compound] | ≤ 125 | 16000 (≈ 117 mM) | ≤ 125 | 8000 (≈ 58.3 mM) | 16000 (≈ 117 mM) | 8000 (≈ 58.3 mM) | 8000 (≈ 58.3 mM) | 4000 (≈ 29.2 mM) | – | – | – | – | – | – | – | –
2 | CC(=O)Oc1ccccc1C(=O)Nc1ncc([N+](=O)[O-])s1 [Nitazoxanide, 2-(acetyloxy)-N-(5-nitro-2-thiazolyl)benzamide, reference compound] | – | – | – | – | – | – | – | – | > 250 | 250 (≈ 0.814 mM) | 63 (≈ 0.205 mM) | 31 (≈ 0.101 mM) | 63 (≈ 0.205 mM) | – | – | Action against TB in presence of proteins found in serum (TB organisms): inhibited by proteins that would be found in serum
3 | CO[C@H]1/C=C/O[C@@]2(C)Oc3c(C)c(O)c4c(O)c(c(/C=N/N5CCN(C)CC5)c(O)c4c3C2=O)NC(=O)/C(C)=C\C=C\[C@H](C)[C@H](O)[C@@H](C)[C@@H](O)[C@@H](C)[C@H](OC(C)=O)[C@@H]1C [Rifampin, reference compound] | ≤ 125 | 16000 (≈ 19.4 mM) | ≤ 125 | ≥ 32000 | ≥ 32000 | ≥ 32000 | ≥ 32000 | ≥ 32000 | – | – | – | – | – | – | – | –
4 | O=C(Nc1ncc([N+](=O)[O-])s1)c1ccc(Cl)c(C(F)(F)F)c1 [VPC16a1060, 4-Chloro-N-(5-nitrothiazol-2-yl)-3-(trifluoromethyl)benzamide] | – | – | – | – | – | – | – | – | – | – | – | – | – | 98 | 90 | –
5 | CCCCCC(=O)Nc1sc([N+](=O)[O-])cc1[N+](=O)[O-] [VPC16b1089] | – | – | – | – | – | – | – | – | – | – | – | – | – | – | – | Minimal Inhibitory Concentration, M. smegmatis [2]: 125 µg/mL; % Inhibit growth, MDR (M. tuberculosis): 0%; % Inhibit growth, Susceptible (M. tuberculosis): 0%; % Inhibit growth, XDR (M. tuberculosis): 0%; % Inhibit growth, H37Rv (M. tuberculosis): 0%; Minimal Inhibitory Concentration, M. avium [3]: 63 µg/mL; Minimal Inhibitory Concentration, M. chelonae [4]: 31 µg/mL; Minimal Inhibitory Concentration, M. marinum [5]: 16 µg/mL; Minimal Inhibitory Concentration, M. abscessus [6]: 4. μg/mL
6 | O=C(Nc1sc([N+](=O)[O-])cc1[N+](=O)[O-])c1ccccc1 [VPC16b1090] | 4000 (≈ 13.6 mM) | 4000 (≈ 13.6 mM) | 4000 (≈ 13.6 mM) | 4000 (≈ 13.6 mM) | 2000 (≈ 6.82 mM) | 4000 (≈ 13.6 mM) | 4000 (≈ 13.6 mM) | 2000 (≈ 6.82 mM) | 16 (≈ 0.0546 mM) | 8 (≈ 0.0273 mM) | 1 (≈ 0.00341 mM) | 4 (≈ 0.0136 mM) | 0.5 (≈ 0.0017 mM) | 100 | 100 | Potency against M. tuberculosis in words (Table 1) (M. tuberculosis): most potent
7 | O=C(Nc1sc([N+](=O)[O-])cc1[N+](=O)[O-])c1cccc(C(F)(F)F)c1 [VPC16b1092] | – | – | – | – | – | – | – | – | – | – | – | – | – | – | – | Minimal Inhibitory Concentration, M. smegmatis [2]: 31 µg/mL; % Inhibit growth, MDR (M. tuberculosis): 100%; % Inhibit growth, Susceptible (M. tuberculosis): 100%; % Inhibit growth, XDR (M. tuberculosis): 100%; Potency against M. tuberculosis in words (Table 1) (M. tuberculosis): most potent; % Inhibit growth, H37Rv (M. tuberculosis): 100%; Minimal Inhibitory Concentration, M. avium [3]: 8 µg/mL; Minimal Inhibitory Concentration, M. chelonae [4]: 4 µg/mL; Minimal Inhibitory Concentration, M. marinum [5]: 4 µg/mL; Minimal Inhibitory Concentration, M. abscessus [6]: 0.25 µg/mL; MIC ([7]; isolate 234 (MDR-TB)): 2 mg/mL (≈ 5.54 mM); MIC ([7]; isolate 283 (susceptible)): 2 mg/mL (≈ 5.54 mM); MIC ([7]; isolate 565 (MDR-TB)): 2 mg/mL (≈ 5.54 mM); MIC ([7]; isolate 694 (MDR-TB)): 1 mg/mL (≈ 2.77 mM); MIC ([7]; isolate 750 (MDR-TB)): 2 mg/mL (≈ 5.54 mM); MIC ([7]; isolate 823 (XDR-TB)): 2 mg/mL (≈ 5.54 mM); MIC ([7]; isolate 971 (MDR-TB)): 2 mg/mL (≈ 5.54 mM); MIC ([7]; isolate H37Rv (Reference)): 2 mg/mL (≈ 5.54 mM)
8 | O=C(Nc1sc([N+](=O)[O-])cc1[N+](=O)[O-])c1cccs1 [VPC16b1093, N-(3,5-Dinitrothiophen-2-yl)thiophene-2-carboxamide] | – | – | – | – | – | – | – | – | 125 (≈ 0.418 mM) | 31 (≈ 0.104 mM) | 2 (≈ 0.00668 mM) | 31 (≈ 0.104 mM) | 1 (≈ 0.00334 mM) | 100 | 100 | –
